Assays:
[1] = target: NS4B-GFP (Hepatitis C virus genotype 1b, UniProt Q9WMX2); format: binding, HCV
[2] = target: T1, GST-NS4B (Hepatitis C virus genotype 1b, UniProt Q9WMX2); test: RNA binding assay; design: species or system HCV; conditions: 5 mM nucleotide; compared with GTP-γ-S
T1 construct: wild type NS4B and the four NBM mutants were fused in frame with N-terminal Glutathione-S Transferase (GST) tags and assayed; made in house; host or cells: E. coli BL21 (pDEST15)
T1 sequence (Q9WMX2 1712-1972 limits assumed): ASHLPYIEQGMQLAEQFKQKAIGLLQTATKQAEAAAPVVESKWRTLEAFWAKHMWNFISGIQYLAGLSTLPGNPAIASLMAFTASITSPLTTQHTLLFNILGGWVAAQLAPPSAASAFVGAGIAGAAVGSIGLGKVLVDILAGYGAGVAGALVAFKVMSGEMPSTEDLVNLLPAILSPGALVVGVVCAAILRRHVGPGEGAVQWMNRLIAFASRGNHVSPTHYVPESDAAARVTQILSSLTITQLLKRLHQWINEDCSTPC
Experimental: RNA binding assay. 1 μg of purified protein was incubated for an hour at 37° C. in a 50 μl reaction mixture containing ^32P-labeled in vitro transcribed HCV RNA (prepared by using Sca I-linearized Bart79I plasmid (wild type HCV replicon (3)) as template, T7 RNA polymerase, and Riboprobe®/Promega, according to the manufacturer's protocol), binding buffer (10 mM DTT, 10 mM Na HEPES (pH 7.4), 33 mM NaCl, 0.1 mM EDTA, 10 mM MgCl2) and 5 mM of either GTP-γ-S or GDP (Sigma). 50 μl of tRNA pre-coated glutathione-agarose beads (Sigma) were then added, followed by 1 hour incubation at 4° C. to allow binding of GST to the beads. Samples were then washed three times in the binding buffer (in the absence of nucleotides). Aliquots were finally subjected to liquid scintillation counting for measuring bound RNA. Control incubations performed with reaction mixture prepared as above but with omission of T7 RNA polymerase were run in parallel and used for background subtraction.

SMILES | labeling of NS4B-GFP by 32P-labeled photoactivatable nucleotide [1] | further results
Nc1nc2c(ncn2[C@@H]2O[C@H](COP(=O)(O)OP(=O)(O)OP(O)(O)=S)[C@@H](O)[C@H]2O)c(=O)[nH]1 [GTPγS] |  | binding of labeled GTP in the presence of cold competitor nucleotide [1]: progressively decreased
Nc1nc2c(ncn2[C@@H]2O[C@H](COP(=O)(O)OP(=O)(O)O)[C@@H](O)[C@H]2O)c(=O)[nH]1 [GDP] |  | HCV RNA binding of GST-NS4B in the presence of guanyl nucleotide [2]: dramatically increased
[N-]=[N+]=Nc1ccc(NP(=O)(O)OP(=O)(O)OP(=O)(O)OC[C@H]2O[C@@H](n3cnc4c(=O)[nH]c(N)nc43)[C@H](O)[C@@H]2O)cc1 [GTP, GTP-γ-4-azidoanilide] | specifically labeled | 
[N-]=[N+]=Nc1ccc(NP(=O)(O)OP(=O)(O)OP(=O)(O)OC[C@H]2O[C@@H](n3cnc4c(N)ncnc43)[C@H](O)[C@@H]2O)cc1 [ATP, ATP-γ4-azidoanilide] | significantly less efficient than GTP binding | 
